pEC50: −log10 of the molar value. Where two headings read alike, the source gives them in different places.
System: isolated rabbit thoracic aorta preparations
Experiment: Vessel relaxation in isolated rabbit thoracic aorta rings precontracted with noradrenaline
Settings: Oryctolagus cuniculus
[1] = read-out: Vessel Relaxation Data ED50
[2] = read-out: vessel relaxation EC50

| pEC50 [1] | SMILES | pEC50 [2] |
| --- | --- | --- |
| 4.45 | Cc1ncc2c(c1O)CO[C@H]2c1ccc(Cl)cc1 | – |
| 3.90 | CO[C@H]1C[C@H](C(=O)O)C[C@@H]1O[N+](=O)[O-] | – |
| 4.73 | CO[C@H]1CC(C(=O)Oc2c(C)ncc3c2CO[C@H]3c2ccc(Cl)cc2)C[C@@H]1O[N+](=O)[O-] (stereo partly drawn) | – |
| 6.63 | CC(=O)N[C@H](C(=O)O)C(C)(C)SN=O (racemic) [SNAP, S-nitroso-N-acetylpenicillamine, reference compound] | – |
| – | Cc1ncc2c(c1OC(=O)OC[C@H]1C[C@H](O[N+](=O)[O-])[C@H](O[N+](=O)[O-])C1)COC2c1ccc(Cl)cc1 (stereo partly drawn) [Example 39] | > 4.30 |
| – | Cc1ncc2c(c1OC(=O)OC[C@@H]1C[C@H](O[N+](=O)[O-])[C@H](O[N+](=O)[O-])C1)COC2c1ccc(Cl)cc1 (stereo partly drawn) [Example 40] | > 4.30 |
| – | Cc1ncc2c(c1OC(=O)O[C@H]1CO[C@H]3[C@@H]1OC[C@H]3O[N+](=O)[O-])COC2c1ccc(Cl)cc1 (stereo partly drawn) [Example 45] | > 4.30 |
| – | CO[C@H]1C[C@@H](C(=O)Oc2c(C)ncc3c2CO[C@H]3c2ccc(Cl)cc2)C[C@@H]1O[N+](=O)[O-] [Example 60, (3S)-3-(4-chlorophenyl)-6-methyl-1,3-dihydrofuro[3,4-c]pyridin-7-yl(1R,3S,4S)-3-methoxy-4-(nitrooxy)cyclopentanecarboxylate] | > 4.30 |

| SMILES | pEC50 [1] | pEC50 [2] |
| --- | --- | --- |
| Cc1ncc2c(c1OC(=O)C1C[C@H](O[N+](=O)[O-])[C@H](O[N+](=O)[O-])C1)CO[C@H]2c1ccc(Cl)cc1 (stereo partly drawn) | 5.20 | – |

— patent publication US8119806B2, “Cicletanine derivatives” (Merck Sharp & Dohme Corp., priority 2008, dated 2012)
